Measurements taken from PubChem BioAssay (NCI).
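Test compounds were applied to cells in 96-well plates for 48 hours at 5 doses. Definition used: TGI = concentration required for complete inhibition of growth.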

Assays:
Test in all cases: DTP human tumour cell line panel, 48 h
SK-OV-3 ovarian = system: SK-OV-3 ovarian
KM12 colon = system: KM12 colon
MCF7 breast = system: MCF7 breast
UACC-62 melanoma = system: UACC-62 melanoma
SF-268 CNS = system: SF-268 CNS
UACC-257 melanoma = system: UACC-257 melanoma
IGROV1 ovarian = system: IGROV1 ovarian
PC-3 prostate = system: PC-3 prostate
DU-145 prostate = system: DU-145 prostate
COLO 205 colon = system: COLO 205 colon

SMILES	TGI (SK-OV-3 ovarian) [µM]	TGI (KM12 colon) [µM]	TGI (MCF7 breast) [µM]	TGI (UACC-62 melanoma) [µM]	TGI (SF-268 CNS) [µM]	TGI (UACC-257 melanoma) [µM]	TGI (IGROV1 ovarian) [µM]	TGI (PC-3 prostate) [µM]	TGI (DU-145 prostate) [µM]	TGI (COLO 205 colon) [µM]
C=C1C(=O)O[C@H]2C[C@@H]1[C@@H](O)[C@H](O)[C@@H](C)CCCC(C)=CCC[C@@]2(C)O	> 100	> 100	26.5	49.2	73	36.4	> 100	43.9	> 100	28.2
COc1cc2c(cc1OC)C(=O)/C(=C/c1cc(C)cc(C)c1)C2	> 32.9	13.5	> 31.9	> 84	> 100	> 100	> 42.4	24.2	6.23	0.346
Cc1nc2sc(C(=O)c3ccc(Cl)cc3)c(N)c2c(-c2ccccc2Cl)c1C(=O)Nc1ccccc1	31.3	50	53.8	29.6	> 94.9	61.8	> 70.5	47	61	37.4
COc1ccc(-c2c(-c3ccccc3)c(C)nc3nc(SC)nc(SC)c23)cc1OC	> 100	> 100	> 100	39.7	> 100	> 100	> 100	41.7	> 100	27.9
CCN1CCC(CNC(=O)c2ccc(N)cc2)N1CC (stereo not given)	> 100	> 100	> 100	> 100	> 100	> 100	> 100	> 100	> 100	> 100
CCC(C)C1=C(O)[N+]2([O-])Oc3ccc(-c4c(O)c(O)c(-c5ccc(OC(C)=O)cc5)c(OC(C)=O)c4OC(C)=O)cc3OC2(C(C)CC)C(=O)N1O (stereo not given)	> 50	> 50	> 50	> 50	> 50	> 50	> 50	> 50	> 50	> 50
CCOC(=O)/C=C(\C(=O)OCC)n1cc(C)c(=O)n(Cc2cnnn2COCCOC(C)=O)c1=O	> 100	31.8	24.5	31.1	38.5	26.3	21.8	> 59.2	48	4.33
CC(C)=CC(=O)c1[nH]c2ccccc2c1CC(=O)NCCc1cncn1C	> 100	> 100	> 100	> 100	> 100	> 100	> 100	> 100	> 100	79.6
COc1ccccc1C1(c2c(OC)c(=O)c2=O)SCCCS1	> 100	> 100	> 100	> 100	> 100	> 100	> 100	> 100	> 100	> 100
O=C1CSC(c2cccc(Cl)c2)N1c1ccc(-c2ccc(-n3c(-c4ccccc4)nc4ccccc4c3=O)cc2)cc1 (stereo not given)	> 100	> 100	> 100	> 100	> 100	> 100	> 100	> 100	> 100	> 100
C[C@]12CC(c3ccccc3O1)C(C(=O)Nc1nc(C34CC5CC(CC(C5)C3)C4)cs1)C(=O)N2 (stereo not given in full)	> 100	> 100	> 100	> 100	> 100	> 100	> 100	> 100	> 100	> 100
O=C1C(c2c(O)[nH]c3ccc(Br)cc23)=Nc2ccc(Br)cc21	90.8	> 100	43.1	> 100	> 100	> 100	> 100	> 100	82.3	> 100
O=C1CSC(c2ccc(Cl)cc2Cl)N1c1ccc(Oc2ccc(Cl)cc2)c(Cl)c1 (stereo not given)	85.6	50.1	> 100	53.5	51.1	> 100	> 100	> 100	> 100	61
COc1cc2c(/C=C3/C(=O)Nc4ccc(Cl)cc43)c(Cl)[nH]c2cc1C	10.6	10	34.9	2.87	43.7	22.4	5.43	11.6	4.38	2.44
O=C(SCc1cccc2ccccc12)c1ccc(Cl)cc1	> 100	> 100	> 100	> 100	> 100	> 100	> 100	> 100	> 100	> 100
CCCCOP(C)(=O)C(NC(=O)OCC)(C(F)(F)F)C(F)(F)F (stereo not given)	> 100	> 100	> 100	> 100	> 100	> 100	> 100	> 100	> 100	> 100
O=C(Cn1c(C(=O)c2ccccc2)nc2ccccc21)c1ccccc1	> 100	> 100	> 100	> 100	> 100	> 100	> 31.6	> 100	> 100	> 100
COc1cc2c(/C=C3/C(=O)N(C)c4ccc(O)cc43)c(Cl)[nH]c2cc1C	3.13	6.64	33.4	13.6	25.3	23.5	19.9	20.8	18.4	2.37
C#CC(O)/C=C/CCCCCCC#CC/C=C\CC#CCCCCCCCCC(O)C#C (stereo not given)	32.3	11.5	39.5	23	25.8	15.1	1.12	31.6	24.1	7.41
CCOC(=O)C1(C#N)CC1	> 100	> 100	> 100	> 100	> 100	> 100	> 100	> 100	> 100	> 100
